pKi: −log10 of the molar value. Activity calls are given as the source filed them. The rule behind the calls is not given here.
Key:
[1] = AUC (0 to t) in Sprague-Dawley rat at 2 mg/kg, iv measured for 24 hrs by LC-MS/MS analysis; assay type: ADME, organism-based; set-up: dose 2 mg/kg, time 24 hrs, route iv; conditions: in vivo; for AUC(0-t) at 24 h: Sprague-Dawley
[2] = Cmax in Sprague-Dawley rat at 2 mg/kg, iv measured for 24 hrs by LC-MS/MS analysis; assay type: ADME, organism-based; set-up: time 24 hrs, dose 2 mg/kg, route iv; conditions: in vivo
[3] = Oral bioavailability in Sprague-Dawley rat at 5 mg/kg measured for 24 hrs by LC-MS/MS analysis; assay type: ADME, organism-based; conditions: in vivo; for bioavailability: Sprague-Dawley
[4] = Half life in Sprague-Dawley rat at 5 mg/kg, po measured for 24 hrs by LC-MS/MS analysis; assay type: ADME, organism-based; conditions: in vivo
[5] = Volume of distribution at steady state in Sprague-Dawley rat at 2 mg/kg, iv measured for 24 hrs by LC-MS/MS analysis; assay type: ADME, organism-based; conditions: in vivo, read-out: Vdss
[6] = Cmax in Sprague-Dawley rat at 5 mg/kg, po measured for 24 hrs by LC-MS/MS analysis; assay type: ADME, organism-based; set-up: time 24 hrs, dose 5 mg/kg, route po; conditions: in vivo
[7] = AUC (0 to t) in Sprague-Dawley rat at 5 mg/kg, po measured for 24 hrs by LC-MS/MS analysis; assay type: ADME, organism-based; set-up: time 24 hrs, dose 5 mg/kg, route po; conditions: in vivo; for AUC(0-t) at 24 h: Sprague-Dawley
[8] = Half life in Sprague-Dawley rat at 2 mg/kg, iv measured for 24 hrs by LC-MS/MS analysis; assay type: ADME, organism-based; conditions: in vivo
[9] = Clearance in Sprague-Dawley rat at 2 mg/kg, iv measured for 24 hrs by LC-MS/MS analysis; assay type: ADME, organism-based; conditions: in vivo
[10] = Drug concentration in Sprague-Dawley rat plasma at 1 mg/kg, iv measured after 15 mins by LC-MS/MS analysis; assay type: ADME, organism-based
[11] = Drug concentration in Sprague-Dawley rat plasma at 1 mg/kg, iv measured after 45 mins by LC-MS/MS analysis; assay type: ADME, organism-based
[12] = Ratio of drug concentration in Sprague-Dawley rat brain to plasma at 1 mg/kg, iv measured after 15 mins by LC-MS/MS analysis; assay type: ADME, organism-based; conditions: brain and plasma, read-out: BPR
[13] = Drug concentration in Sprague-Dawley rat brain at 1 mg/kg, iv measured after 15 mins by LC-MS/MS analysis; assay type: ADME, organism-based; conditions: read-out: Ct
[14] = Ratio of drug concentration in Sprague-Dawley rat brain to plasma at 1 mg/kg, iv measured after 75 mins by LC-MS/MS analysis; assay type: ADME, organism-based; conditions: brain and plasma, read-out: BPR
[15] = Drug concentration in Sprague-Dawley rat plasma at 1 mg/kg, iv measured after 75 mins by LC-MS/MS analysis; assay type: ADME, organism-based
[16] = Drug concentration in Sprague-Dawley rat brain at 1 mg/kg, iv measured after 75 mins by LC-MS/MS analysis; assay type: ADME, organism-based; conditions: read-out: Ct
[17] = Ratio of drug concentration in Sprague-Dawley rat brain to plasma at 1 mg/kg, iv measured after 45 mins by LC-MS/MS analysis; assay type: ADME, organism-based; conditions: brain and plasma, read-out: BPR
[18] = Drug concentration in Sprague-Dawley rat brain at 1 mg/kg, iv measured after 45 mins by LC-MS/MS analysis; assay type: ADME, organism-based; conditions: read-out: Ct
Rattus norvegicus = assay: Cognitive enhancing effect in Wistar rat model of scopolamine-induced cognitive impairment assessed as rescue of loss of preference for new object at 3 to 5 mg/kg, ip administered as single dose for 30 mins followed by scopolamine addition and measured after 30 mins by Novel object recognition assay; assay type: functional, organism-based; conditions: dose 3-5 mg/kg, time 1.0 hrs
[19] = In vivo antagonist activity at 5-HT6R in Sprague-Dawley rat assessed as increase in intracerebral hippocampal acetylcholine level at 5 mg/kg, ip pretreated for 30 mins followed by donepezil addition and measured every 20 mins for 360 mins by LC-MS/MS analysis relative to control; assay type: functional; set-up: scale not given: the % may be the effect or the level left; conditions: time 390 min, 6.5 h
Mus musculus = assay: Cognitive enhancing effect in C57BL/6J mouse model of scopolamine-induced memory deficit assessed as reduction in incubation period of mouse entering into dark compartment at 10 mg/kg, ip pretreated for 30 mins followed by scopolamine addition and measured after 30 mins by step-through passive avoidance test; assay type: functional, organism-based; conditions: time 1.0 hrs
[20] = In vivo antagonist activity at 5-HT6R in Sprague-Dawley rat assessed as increase in intracerebral hippocampal acetylcholine level at 1.5 mg/kg, ip pretreated for 30 mins followed by donepezil addition and measured every 20 mins for 360 mins by LC-MS/MS analysis relative to control; assay type: functional; set-up: scale not given: the % may be the effect or the level left; conditions: time 390 min, 6.5 h
[21] = biological target: 5-hydroxytryptamine receptor 6 (Homo sapiens, UniProt P50406); assay: Displacement of [3H]-LSD from human 5HT6 receptor expressed in CHO cells assessed as inhibition constant incubated for 120 mins by liquid scintillation counting analysis; assay type: cell-based
Sequence of 5-hydroxytryptamine receptor 6 (P50406 whole entry): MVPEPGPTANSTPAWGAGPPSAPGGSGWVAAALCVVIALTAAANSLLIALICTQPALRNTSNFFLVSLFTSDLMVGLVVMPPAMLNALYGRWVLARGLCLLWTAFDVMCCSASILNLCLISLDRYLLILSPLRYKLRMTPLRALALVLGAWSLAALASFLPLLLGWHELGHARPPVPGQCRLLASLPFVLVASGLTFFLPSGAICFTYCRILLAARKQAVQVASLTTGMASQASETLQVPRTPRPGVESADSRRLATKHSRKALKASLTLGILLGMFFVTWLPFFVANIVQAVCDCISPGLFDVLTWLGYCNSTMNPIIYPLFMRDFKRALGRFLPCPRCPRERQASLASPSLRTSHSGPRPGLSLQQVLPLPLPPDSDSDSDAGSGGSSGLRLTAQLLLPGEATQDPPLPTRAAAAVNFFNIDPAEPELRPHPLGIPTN

Structure (SMILES)	AUC(0-t) at 24 h [1] [ng·h/mL]	Cmax [2] [ng/mL]	bioavailability [3] [%]	half-life [4] [h]	Vd [5] [L/kg]	Cmax [6] [ng/mL]	AUC(0-t) at 24 h [7] [ng·h/mL]	half-life [8] [h]	clearance [9] [mL/min/kg]	concentration at 0.25 h [10] [ng/mL]	concentration at 0.75 h [11] [ng/mL]	Kp at 0.25 h [12]	concentration at 0.25 h [13] [ng/g]	Kp at 1.25 h [14]	concentration at 1.25 h [15] [ng/mL]	concentration at 1.25 h [16] [ng/g]	Kp at 0.75 h [17]	concentration at 0.75 h [18] [ng/g]	also measured
O=S(=O)(c1ccccc1F)n1cc(C(F)F)c2c(N3CCNCC3)cccc21	272	112	18.5	1.98	24	33.6	132	2.54	108										
O=S(=O)(c1cccc(Cl)c1)n1cc(C(F)F)c2c(N3CCNCC3)cccc21	306	200	37	4.39	26.6	44.1	348	4.46	82.8	434	127	0.94	406	3.21	69.6	224	2.37	302	
O=S(=O)(c1cccc(F)c1)n1cc(C(F)F)c2c(N3CCNCC3)cccc21	323	140	34.4	4.33	18.8	51.8	267	2.28	93.4	58.1	30.3	4.81	279	6.16	20.8	128	6.17	187	Activity (Rattus norvegicus): Active; Activity [19]: 287%; Activity (Mus musculus): Active; Activity [20]: 235%
O=S(=O)(c1ccccc1Cl)n1cc(C(F)F)c2c(N3CCNCC3)cccc21	242	120	29.5	3.01	25.8	33.6	162	2.55	123										
Cc1cn(S(=O)(=O)c2cccc(F)c2)c2cccc(N3CCNCC3)c12		159			6.7	3.61		1.4	63										AUCt ([1]; 24 h): 254 ng·h/mL; F ([3]; po, 5 mg/kg, 24 h): 5.95%; pKi [21]: 9.29; AUCt ([7]; 24 h): 9.37 ng·h/mL

— ChEMBL document CHEMBL5107995, “Novel difluoromethylated 1-(phenylsulfonyl)-4-(piperazin-1-yl)-1H-indole derivatives as potent 5-HT6 receptor antagonist with AMDE-improving properties: Design, synthesis, and biological evaluation” (Bioorg Med Chem, 2022)
